This is an account of results in PMC7948503, “Optimization of a peptide ligand for the adhesion GPCR ADGRG2 provides a potent tool to explore receptor biology” (The Journal of Biological Chemistry, 2020).

Test [1] addresses T1, Rluc-ADGRG2-ΔGPS-β L665A (Mus musculus, UniProt Q8CJ12, L679A).
T1 construct: the entire ECD (including the entire GPS motif) was removed (ADGRG2-ΔGPS-β); expressed in transfected cells; host or cells: HEK293
The test can be described thus: BRET binding of FITC-VPM-p15. As to conditions: mutant L665A. As to the method: (§1) The binding capacities of ADGRG2 WT or its mutants for VPM-p15 were determined by BRET assay, which has been used in previous studies ([27], [28], [29]). We fused the N terminus of ADGRG2 with a Rluc fragment and coupled FITC to the C terminus of VPM-p15 to facilitate BRET measurement. We stimulated the HEK293 cells transfected with Rluc-ADGRG2-ΔGPS-β wildtype (WT) or mutants by increasing the concentration of FITC-conjugated VPM-p15, and their binding abilities were determined by fitting the data with the saturation curves.
(§2) In the detection of binding capacities of ADGRG2 WT or its mutants for VPM-p15, HEK293 cells were transfected with Rluc-ADGRG2-ΔGPS-β or mutants. Transfected cells were stimulated by increasing the concentration of FITC-conjugated VPM-p15. Binding capacities were determined by BRET, EC50 values of ADGRG2 WT and its mutants for binding VPM-p15 were calculated by GraphPad, and data were normalized by EC50 of WT.

Test [2] addresses T2, Rluc-ADGRG2-ΔGPS-β F838A (Mus musculus, UniProt Q8CJ12, F852A).
T2 construct: expressed in transfected cells; host or cells: HEK293
The test can be described thus: BRET binding of FITC-VPM-p15. As to conditions: mutant F838A. The protocol: as §1, §2

The target in test [3] is T3, Rluc-ADGRG2-ΔGPS-β I730A (Mus musculus, UniProt Q8CJ12, I744A).
T3 construct: the entire ECD (including the entire GPS motif) was removed (ADGRG2-ΔGPS-β); expressed in transfected cells; host or cells: HEK293
T3 sequence (Q8CJ12 618-1009 I744A limits assumed): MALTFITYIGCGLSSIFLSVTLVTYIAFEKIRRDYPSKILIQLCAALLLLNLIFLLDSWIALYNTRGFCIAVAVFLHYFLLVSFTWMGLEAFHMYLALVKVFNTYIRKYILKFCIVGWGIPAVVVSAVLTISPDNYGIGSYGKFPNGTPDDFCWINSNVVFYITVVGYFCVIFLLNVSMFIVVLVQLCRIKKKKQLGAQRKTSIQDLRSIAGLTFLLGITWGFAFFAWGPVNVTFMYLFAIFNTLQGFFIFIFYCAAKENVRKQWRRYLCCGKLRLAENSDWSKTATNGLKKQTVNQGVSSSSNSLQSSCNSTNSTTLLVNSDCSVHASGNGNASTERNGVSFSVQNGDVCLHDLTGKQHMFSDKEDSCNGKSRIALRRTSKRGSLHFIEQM
The test can be described thus: BRET binding of FITC-VPM-p15. As to conditions: mutant I730A. As to the method: as §1, §2

Test [4] addresses T4, Rluc-ADGRG2-ΔGPS-β V774A (Mus musculus, UniProt Q8CJ12, V788A).
T4 construct: expressed in transfected cells; host or cells: HEK293
In words: BRET binding of FITC-VPM-p15. As to conditions: mutant V774A. The protocol:
as §1, §2

Test [5] has as its target T5, Rluc-ADGRG2-ΔGPS-β F828A (Mus musculus, UniProt Q8CJ12, F842A).
T5 construct: expressed in transfected cells; host or cells: HEK293
The test can be described thus: BRET binding of FITC-VPM-p15. As to conditions: mutant F828A. As to the method:
as §1, §2

The target in test [6] is T6, Rluc-ADGRG2-ΔGPS-β F747A (Mus musculus, UniProt Q8CJ12, F761A).
T6 construct: the entire ECD (including the entire GPS motif) was removed (ADGRG2-ΔGPS-β); expressed in transfected cells; host or cells: HEK293
T6 sequence (Q8CJ12 618-1009 F761A limits assumed): as the sequence (Q8CJ12 618-1009 I744A limits assumed) above, with A127I, F144A counted along it
In words: BRET binding of FITC-VPM-p15. As to conditions: mutant F747A. The protocol:
as §1, §2

Test [7] addresses T7, Rluc-ADGRG2-ΔGPS-β S760A (Mus musculus, UniProt Q8CJ12, S774A).
T7 construct: the entire ECD (including the entire GPS motif) was removed (ADGRG2-ΔGPS-β); expressed in transfected cells; host or cells: HEK293
The test can be described thus: BRET binding of FITC-VPM-p15. As to conditions: mutant S760A. As to the method: as §1, §2

Test [8] concerns the target T8, Rluc-ADGRG2-ΔGPS-β C614A (Mus musculus, UniProt Q8CJ12, C628A).
T8 construct: the entire ECD (including the entire GPS motif) was removed (ADGRG2-ΔGPS-β); expressed in transfected cells; host or cells: HEK293
The test can be described thus: BRET binding of FITC-VPM-p15. As to conditions: mutant C614A. As to the method:
as §1, §2

In test [9] the target is T9, Rluc-ADGRG2-ΔGPS-β V762A (Mus musculus, UniProt Q8CJ12, V776A).
T9 construct: the entire ECD (including the entire GPS motif) was removed (ADGRG2-ΔGPS-β); expressed in transfected cells; host or cells: HEK293
T9 sequence (Q8CJ12 618-1009 V776A limits assumed): as the sequence (Q8CJ12 618-1009 I744A limits assumed) above, with A127I, V159A counted along it
In words: BRET binding of FITC-VPM-p15. As to conditions: mutant V762A. The protocol:
as §1, §2

Test [10] concerns the target T10, Rluc-ADGRG2-ΔGPS-β V836A (Mus musculus, UniProt Q8CJ12, V850A).
T10 construct: expressed in transfected cells; host or cells: HEK293
In words: BRET binding of FITC-VPM-p15. As to conditions: mutant V836A. As to the method: as §1, §2

Test [11] addresses T11, Rluc-ADGRG2-ΔGPS-β T610A (Mus musculus, UniProt Q8CJ12, T624A).
T11 construct: the entire ECD (including the entire GPS motif) was removed (ADGRG2-ΔGPS-β); expressed in transfected cells; host or cells: HEK293
The test can be described thus: BRET binding of FITC-VPM-p15. As to conditions: mutant T610A. As to the method: as §1, §2

Test [12] has as its target T12, Rluc-ADGRG2-ΔGPS-β F772A (Mus musculus, UniProt Q8CJ12, F786A).
T12 construct: expressed in transfected cells; host or cells: HEK293
In words: BRET binding of FITC-VPM-p15. As to conditions: mutant F772A. The protocol: as §1, §2

Test [13] concerns the target T13, Rluc-ADGRG2-ΔGPS-β L683A (Mus musculus, UniProt Q8CJ12, L697A).
T13 construct: the entire ECD (including the entire GPS motif) was removed (ADGRG2-ΔGPS-β); expressed in transfected cells; host or cells: HEK293
The test can be described thus: BRET binding of FITC-VPM-p15. As to conditions: mutant L683A. The protocol: as §1, §2

Test [14] addresses T14, Rluc-ADGRG2-ΔGPS-β I844A (Mus musculus, UniProt Q8CJ12, I858A).
T14 construct: expressed in transfected cells; host or cells: HEK293
The test can be described thus: BRET binding of FITC-VPM-p15. As to conditions: mutant I844A. The protocol: as §1, §2

Test [15] deals with T15, Rluc-ADGRG2-ΔGPS-β Y611A (Mus musculus, UniProt Q8CJ12, Y625A).
T15 construct: the entire ECD (including the entire GPS motif) was removed (ADGRG2-ΔGPS-β); expressed in transfected cells; host or cells: HEK293
T15 sequence (Q8CJ12 618-1009 Y625A limits assumed): as the sequence (Q8CJ12 618-1009 I744A limits assumed) above, with Y8A, A127I counted along it
The test can be described thus: BRET binding of FITC-VPM-p15. As to conditions: mutant Y611A. The protocol:
as §1, §2

Test [16] has as its target T16, Rluc-ADGRG2-ΔGPS-β N667A (mouse, UniProt Q8CJ12-3 38-995, N667A).
T16 construct: ADGRG2 (GPR64), mouse, ADGRG2-ΔGPS-β: the entire ECD removed; source: HEK293, transfected, on cells; not shown: Rluc, N-terminal, kept
In words: FRET or BRET; HEK293 cells transfected with Rluc-ADGRG2-ΔGPS-β WT or mutants, stimulated by increasing concentrations of FITC-conjugated VPM-p15; saturation curves fitted with GraphPad; each experiment repeated 6 times. As to conditions: one partner purified.

The target in test [17] is T17, Rluc-ADGRG2-ΔGPS-β V836A (mouse, UniProt Q8CJ12-3 38-995, V836A).
T17 construct: ADGRG2 (GPR64), mouse, ADGRG2-ΔGPS-β: the entire ECD removed; source: HEK293, transfected, on cells; not shown: Rluc, N-terminal, kept
T17 sequence (Q8CJ12 other isoform, or with tags, fused parts or gaps V836A | V836A | V836A V836A): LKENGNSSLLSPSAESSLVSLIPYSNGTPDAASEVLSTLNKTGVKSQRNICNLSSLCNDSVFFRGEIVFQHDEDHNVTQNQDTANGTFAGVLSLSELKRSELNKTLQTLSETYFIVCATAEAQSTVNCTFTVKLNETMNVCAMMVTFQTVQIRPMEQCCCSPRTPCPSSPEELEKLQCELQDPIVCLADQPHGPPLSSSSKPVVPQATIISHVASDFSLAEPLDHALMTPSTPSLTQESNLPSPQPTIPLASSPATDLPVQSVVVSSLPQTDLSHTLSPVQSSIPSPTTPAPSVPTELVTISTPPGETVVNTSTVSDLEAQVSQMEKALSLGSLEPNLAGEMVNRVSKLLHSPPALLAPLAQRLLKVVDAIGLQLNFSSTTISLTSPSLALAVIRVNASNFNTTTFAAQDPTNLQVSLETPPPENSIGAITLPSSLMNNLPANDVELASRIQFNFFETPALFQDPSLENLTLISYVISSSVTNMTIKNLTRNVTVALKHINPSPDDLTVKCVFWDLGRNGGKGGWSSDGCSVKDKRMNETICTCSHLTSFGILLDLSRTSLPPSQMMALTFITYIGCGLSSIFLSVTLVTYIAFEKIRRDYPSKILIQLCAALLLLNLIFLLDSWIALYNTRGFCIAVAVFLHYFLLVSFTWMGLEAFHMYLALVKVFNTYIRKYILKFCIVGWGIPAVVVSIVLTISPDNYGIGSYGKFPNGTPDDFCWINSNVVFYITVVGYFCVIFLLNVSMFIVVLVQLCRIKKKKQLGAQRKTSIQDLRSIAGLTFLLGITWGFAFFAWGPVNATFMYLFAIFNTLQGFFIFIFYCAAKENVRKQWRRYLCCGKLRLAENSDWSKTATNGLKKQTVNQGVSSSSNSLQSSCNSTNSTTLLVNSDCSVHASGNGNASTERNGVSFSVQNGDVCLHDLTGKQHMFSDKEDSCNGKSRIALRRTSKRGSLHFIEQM
The description is as above. As to conditions: one partner purified.

Setting [18] is: Kd(mutated ADGRG2-ΔGPS-β)/Kd(WT).

Non-standard residues stand in square brackets, D forms with d. Residues, ends and D or L forms follow the SMILES beside them. Primed or numbered codes have the meaning given here. No end group written: not given here. *: point of attachment. FITC = O=C1OC2(c3ccc(O)cc3Oc3cc(O)ccc32)c2ccc(NC(=S)*)cc21; Phe(4-Me) = Cc1ccc(C[C@H](N)C(=O)O)cc1; FITC′ = not defined here

T5 sequence (Q8CJ12 614-1009 F842A): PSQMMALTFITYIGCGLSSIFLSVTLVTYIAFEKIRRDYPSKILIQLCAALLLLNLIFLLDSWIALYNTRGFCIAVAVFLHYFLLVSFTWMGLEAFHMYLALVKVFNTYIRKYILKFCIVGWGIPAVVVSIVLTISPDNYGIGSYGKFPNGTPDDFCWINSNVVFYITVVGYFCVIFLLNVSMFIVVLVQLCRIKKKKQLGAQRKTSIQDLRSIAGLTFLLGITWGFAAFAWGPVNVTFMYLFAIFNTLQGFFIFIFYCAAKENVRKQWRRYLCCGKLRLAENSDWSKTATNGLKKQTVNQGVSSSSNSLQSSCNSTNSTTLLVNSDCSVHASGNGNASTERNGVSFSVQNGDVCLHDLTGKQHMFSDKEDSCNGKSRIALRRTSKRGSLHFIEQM
T2 sequence (Q8CJ12 614-1009 F852A): as the sequence (Q8CJ12 614-1009 F842A) above, with A229F, F239A counted along it
T11 sequence (Q8CJ12 618-1009 T624A limits assumed): as the sequence (Q8CJ12 618-1009 I744A limits assumed) above, with T7A, A127I counted along it
T14 sequence (Q8CJ12 614-1009 I858A): as the sequence (Q8CJ12 614-1009 F842A) above, with A229F, I245A counted along it
T10 sequence (Q8CJ12 614-1009 V850A): as the sequence (Q8CJ12 614-1009 F842A) above, with A229F, V237A counted along it
T1 sequence (Q8CJ12 618-1009 L679A limits assumed): as the sequence (Q8CJ12 618-1009 I744A limits assumed) above, with L62A, A127I counted along it
T8 sequence (Q8CJ12 618-1009 C628A limits assumed): as the sequence (Q8CJ12 618-1009 I744A limits assumed) above, with C11A, A127I counted along it
T12 sequence (Q8CJ12 614-1009 F786A): as the sequence (Q8CJ12 614-1009 F842A) above, with F173A, A229F counted along it
T4 sequence (Q8CJ12 614-1009 V788A): as the sequence (Q8CJ12 614-1009 F842A) above, with V175A, A229F counted along it
T7 sequence (Q8CJ12 618-1009 S774A limits assumed): as the sequence (Q8CJ12 618-1009 I744A limits assumed) above, with A127I, S157A counted along it
T13 sequence (Q8CJ12 618-1009 L697A limits assumed): as the sequence (Q8CJ12 618-1009 I744A limits assumed) above, with L80A, A127I counted along it
T16 sequence (Q8CJ12 other isoform, or with tags, fused parts or gaps N667A | N667A | N667A N667A): as the sequence (Q8CJ12 other isoform, or with tags, fused parts or gaps V836A | V836A | V836A V836A) above, with N630A, A799V counted along it

Consider `CC[C@H](C)[C@H](NC(=O)CNC(=O)[C@H](Cc1ccc(C)cc1)NC(=O)[C@H](CO)NC(=O)[C@@H](N)C(C)C)C(=O)N[C@@H](CC(C)C)C(=O)N[C@@H](CC(C)C)C(=O)N[C@@H](CC(=O)O)C(=O)N[C@@H](CC(C)C)C(=O)N[C@@H](CO)C(=O)N[C@@H](CCCNC(=N)N)C(=O)N[C@H](C(=O)N[C@@H](CO)C(=O)N[C@@H](CC(C)C)C(=O)N1CCC[C@H]1C(=O)N[C@@H](CCCCNC(=S)Nc1ccc2c(c1)C(=O)OC21c2ccc(O)cc2Oc2cc(O)ccc21)C(=O)O)[C@@H](C)O` [FITC-VPM-p15] (H-VS[Phe(4-Me)]GILLDLSRTSLPK(FITC)-OH; N-terminus and C-terminus assumed), for which the Fmut in test [1] (setting [18]) was found to be 0.850; in test [2] (setting [18]), 0.819; in test [3] (setting [18]) it was 1.281; in test [4] (setting [18]), 1.149; in test [5] (setting [18]) it was 1.247; in [6] (setting [18]), 0.811. Besides, the Fmut was determined as 1.444 in [7] (setting [18]); 1.382 in test [8] (setting [18]); 1.268 in test [9] (setting [18]); 1.315 in [10] (setting [18]); 1.197 in test [11] (setting [18]); 0.903 in [12] (setting [18]). In addition, the Fmut in test [13] (setting [18]) is listed as 1.240; in [14] (setting [18]) it was 1.640; in test [15] (setting [18]) it was 0.761. The Bmax is reported as 0.799±0.012 in test [1] (binding Bmax (BRET)); 0.793±0.022 in test [2] (binding Bmax (BRET)); 0.7950±0.031 in [3] (binding Bmax (BRET)); 0.820±0.032 in test [4] (binding Bmax (BRET)); 0.706±0.006 in test [5] (binding Bmax (BRET)); 0.813±0.041 in [6] (binding Bmax (BRET)). For the same molecule, the Bmax in test [7] (binding Bmax (BRET)) amounted to 0.716±0.011; in test [8] (binding Bmax (BRET)) it was 0.7934±0.0241; in [9] (binding Bmax (BRET)), 0.798±0.021; in test [10] (binding Bmax (BRET)) it was 0.775±0.030; in [11] (binding Bmax (BRET)), 0.8072±0.024; in test [12] (binding Bmax (BRET)), 0.795±0.021. Moreover, the Bmax in [13] (binding Bmax (BRET)) is given as 0.7887±0.022; in test [14] (binding Bmax (BRET)) it was 0.729±0.093; in test [15] (binding Bmax (BRET)) it was 0.7912±0.020.
Turning to VS[Phe(4-Me)]GILLDLSRTSLP-{FITC′} [FITC-conjugated VPM-p15 (ADGRG2 Stachel peptide p15 T1V/F3Phe(4-Me))], the half-maximal effective concentration (EC50) was 913 nM in [16] and 1230 nM in test [17].
